Test results published in ChEMBL document CHEMBL4419178, “Yap1 inhibitors that target the interaction of yap1 with oct4” (2018).
Activity calls are given as the source filed them.

Key:
A549 = experiment: Cytotoxicity in human A549 cells assessed as reduction in cell viability at 0.5 to 20 uM incubated for 72 hrs by MTT assay; assay type: functional, cell-based
NCI-H1975 = experiment: Cytotoxicity in gefitinib and erlotinib resistant human NCI-H1975 cells assessed as reduction in cell viability at 1 to 10 uM incubated for 72 hrs by MTT assay; assay type: functional, cell-based
NCI-H1650 [1] = experiment: Inhibition of YAP1/TEAD2 interaction in human NCI-H1650 cells assessed as suppression of CTGF mRNA expression at 5 to 10 uM incubated for 72 hrs by RT-PCR method; assay type: cell-based
NCI-H146 [2] = experiment: Inhibition of self-renewal capacity in methotrexate insensitive stem-like side-population cells of human NCI-H146 cells assessed as reduction in number of spheres at 2 uM incubated for 3 days after 7 days methotrexate exposure by sphere formation assay; assay type: functional
Homo sapiens [3] = species: Homo sapiens; experiment: Cytotoxicity in human WM1366 cells assessed as reduction in cell viability at 0.5 to 20 uM incubated for 72 hrs by MTT assay; assay type: functional, cell-based
[4] = biological target: Transcriptional coactivator YAP1 (Homo sapiens) (UniProt P46937); experiment: Inhibition of YAP1 in human NCI-H1703 cells assessed as suppression of Sox2 mRNA expression at 5 to 10 uM incubated for 72 hrs by RT-PCR method; assay type: cell-based
Transcriptional coactivator YAP1 (Homo sapiens), sequence (P46937 whole entry): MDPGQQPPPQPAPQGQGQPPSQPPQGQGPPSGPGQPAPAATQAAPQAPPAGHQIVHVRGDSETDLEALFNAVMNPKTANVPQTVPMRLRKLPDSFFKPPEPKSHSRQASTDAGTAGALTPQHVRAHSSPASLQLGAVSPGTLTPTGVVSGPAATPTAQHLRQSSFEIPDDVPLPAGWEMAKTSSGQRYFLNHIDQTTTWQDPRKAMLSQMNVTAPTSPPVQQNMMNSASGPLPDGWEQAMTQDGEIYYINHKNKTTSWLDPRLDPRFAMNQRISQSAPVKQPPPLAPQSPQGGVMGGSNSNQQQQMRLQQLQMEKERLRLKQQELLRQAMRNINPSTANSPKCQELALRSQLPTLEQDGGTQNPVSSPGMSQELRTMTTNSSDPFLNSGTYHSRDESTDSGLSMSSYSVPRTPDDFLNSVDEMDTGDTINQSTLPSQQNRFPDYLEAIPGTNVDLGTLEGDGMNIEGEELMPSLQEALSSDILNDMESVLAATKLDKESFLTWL

[5] = biological target: Transcriptional coactivator YAP1 (Homo sapiens) (UniProt P46937); experiment: Inhibition of YAP1 in human NCI-H146 cells assessed as suppression of Sox2 mRNA expression at 5 to 10 uM incubated for 72 hrs by RT-PCR method; assay type: cell-based
NCI-H146 [6] = experiment: Effect on expression of Oct4 mRNA expression in human NCI-H146 cells at 5 to 10 uM incubated for 72 hrs by RT-PCR method; assay type: cell-based; details: nci-h146, 72 h
PC-9 = experiment: Cytotoxicity in gefitinib resistant human PC9 cells assessed as reduction in cell viability at 1 to 20 uM by MTT assay; assay type: functional, cell-based
NCI-H1650 [7] = experiment: Cytotoxicity in human NCI-H1650 cells assessed as reduction in cell viability at 0.5 to 20 uM incubated for 72 hrs by MTT assay; assay type: functional, cell-based
[8] = biological target: Transcriptional coactivator YAP1 (Homo sapiens) (UniProt P46937); experiment: Inhibition of YAP1 in human NCI-H1650 cells assessed as suppression of Sox2 mRNA expression at 5 to 10 uM incubated for 72 hrs by RT-PCR method; assay type: cell-based
[9] = biological target: Transcriptional coactivator YAP1 (Homo sapiens) (UniProt P46937); experiment: Inhibition of YAP1 in human NCI-H1650 cells assessed as reduction in Sox2 protein expression at 5 uM by luciferase reporter gene assay; assay type: cell-based
NCI-H1650 [10] = experiment: Inhibition of self-renewal capacity in stem-like side-population cells of human NCI-H1650 cells assessed as reduction in number of spheres at 1 to 20 uM incubated for 10 days by sphere formation assay; assay type: functional, cell-based
NCI-H1703 [11] = experiment: Effect on expression of Oct4 mRNA expression in human NCI-H1703 cells at 5 to 10 uM incubated for 72 hrs by RT-PCR method; assay type: cell-based; details: nci-h1703, 72 h
NCI-H1703 [12] = experiment: Cytotoxicity in human NCI-H1703 cells assessed as reduction in cell viability at 0.5 to 20 uM incubated for 96 hrs by MTT assay; assay type: functional, cell-based
HCC827 = experiment: Cytotoxicity in erlotinib-resistant human HCC827 cells assessed as reduction in cell viability at 1 to 20 uM by MTT assay; assay type: functional, cell-based
[13] = biological target: Transcriptional coactivator YAP1 (Homo sapiens) (UniProt P46937); experiment: Inhibition of YAP1 in human A549 cells assessed as disruption in YAP1/OCT4 interaction at 5 uM incubated for 72 hrs by immunoprecipitation-Westem blot assay; assay type: cell-based
NCI-H1703 [14] = experiment: Inhibition of YAP1/TEAD2 interaction in human NCI-H1703 cells assessed as suppression of CTGF mRNA expression at 5 to 10 uM incubated for 72 hrs by RT-PCR method; assay type: cell-based
[15] = biological target: Transcriptional coactivator YAP1 (Homo sapiens) (UniProt P46937); experiment: Inhibition of YAP1 in human NCI-H1650 cells assessed as disruption in YAP1/OCT4 interaction at 5 uM incubated for 72 hrs by immunoprecipitation-Westem blot assay; assay type: cell-based
NCI-H1650 [16] = experiment: Inhibition of self-renewal capacity in stem-like side-population cells of human NCI-H1650 cells assessed as reduction in number of spheres at 5 uM incubated for 10 days by sphere formation assay relative to control; assay type: functional; details: NCI-H1650, 240 h
Homo sapiens [17] = species: Homo sapiens; experiment: Cytotoxicity in human 92-1 cells assessed as reduction in cell viability at 0.5 to 20 uM incubated for 72 hrs by MTT assay; assay type: functional, cell-based
NCI-H1703 [18] = experiment: Inhibition of adherence-independent cell growth in human NCI-H1703 cells at 5 uM incubated for 33 days; assay type: functional, cell-based
SK-MEL-5 = experiment: Cytotoxicity in human SK-MEL-5 cells assessed as reduction in cell viability at 0.5 to 20 uM incubated for 72 hrs by MTT assay; assay type: functional, cell-based
[19] = biological target: Transcriptional coactivator YAP1 (Homo sapiens) (UniProt P46937); experiment: Inhibition of YAP1 in human NCI-H1650 cells assessed as suppression of fibronectin mRNA expression at 5 to 10 uM incubated for 72 hrs by RT-PCR method; assay type: cell-based
[20] = biological target: Transcriptional coactivator YAP1 (Homo sapiens) (UniProt P46937); experiment: Inhibition of YAP1 in human NCI-H1703 cells assessed as suppression of vimentin mRNA expression at 5 to 10 uM incubated for 72 hrs by RT-PCR method; assay type: cell-based
NCI-H146 [21] = experiment: Effect on expression of Nanog mRNA expression in human NCI-H146 cells at 5 to 10 uM incubated for 72 hrs by RT-PCR method; assay type: cell-based; details: nci-h146, 72 h
NCI-H1650 [22] = experiment: Effect on expression of Oct4 mRNA expression in human NCI-H1650 cells at 5 to 10 uM incubated for 72 hrs by RT-PCR method; assay type: cell-based; details: nci-h1650, 72 h
[23] = biological target: Transcriptional coactivator YAP1 (Homo sapiens) (UniProt P46937); experiment: Inhibition of YAP1 in human NCI-H1703 cells assessed as suppression of fibronectin mRNA expression at 5 to 10 uM incubated for 72 hrs by RT-PCR method; assay type: cell-based
NCI-H1703 [24] = experiment: Inhibition of adherence-independent cell growth in human NCI-H1703 cells at 10 uM incubated for 33 days; assay type: functional, cell-based
NCI-H1703 [25] = experiment: Effect on expression of Nanog mRNA expression in human NCI-H1703 cells at 5 to 10 uM incubated for 72 hrs by RT-PCR method; assay type: cell-based; details: nci-h1703, 72 h
NCI-H1650 [26] = experiment: Inhibition of adherence-independent cell growth in human NCI-H1650 cells at 5 uM incubated for 33 days; assay type: functional, cell-based
NCI-H1650 [27] = experiment: Inhibition of adherence-independent cell growth in human NCI-H1650 cells at 10 uM incubated for 33 days; assay type: functional, cell-based
HUVEC = experiment: Inhibition of angiogenic tubule formation in HUVEC at 1 to 5 uM incubated for 18 to 24 hrs; assay type: functional, cell-based; details: Homo sapiens
NCI-H226 = experiment: Cytotoxicity in human NCI-H226 cells assessed as reduction in cell viability at 0.5 to 20 uM incubated for 96 hrs by MTT assay; assay type: functional, cell-based
[28] = biological target: Transcriptional coactivator YAP1 (Homo sapiens) (UniProt P46937); experiment: Inhibition of YAP1 in human NCI-H1650 cells assessed as suppression of vimentin mRNA expression at 5 to 10 uM incubated for 72 hrs by RT-PCR method; assay type: cell-based
NCI-H1650 [29] = experiment: Effect on expression of Nanog mRNA expression in human NCI-H1650 cells at 5 to 10 uM incubated for 72 hrs by RT-PCR method; assay type: cell-based; details: nci-h1650, 72 h

COC(=O)[C@H](Cc1ccc(OCc2ccccc2)cc1)NC(=O)CC1CCN(C(=O)CCc2ccc(Cl)c(Cl)c2)CC1
99%: inhibition at 5 µM (NCI-H1650 [16])
Non-Toxic: Activity (NCI-H146 [6]) | Activity (NCI-H1703 [11]) | Activity (NCI-H146 [21]) | Activity (NCI-H1650 [22]) | Activity (NCI-H1703 [25]) | Activity (NCI-H1650 [29])
active: Activity (A549) | Activity (NCI-H1975) | inhibition (NCI-H146 [2]) | Activity (Homo sapiens [3]) | inhibition [4] | inhibition [5] | Activity (PC-9) | Activity (NCI-H1650 [7]) | inhibition [8] | inhibition (NCI-H1650 [10]) | Activity (NCI-H1703 [12]) | Activity (HCC827) | inhibition [13] | inhibition [15] | Activity (Homo sapiens [17]) | inhibition (NCI-H1703 [18]) | Activity (SK-MEL-5) | inhibition [19] | inhibition [20] | inhibition [23] | inhibition (NCI-H1703 [24]) | inhibition (NCI-H1650 [26]) | inhibition (NCI-H1650 [27]) | inhibition (HUVEC) | Activity (NCI-H226) | inhibition [28]
85.5%: inhibition [9]
inactive: inhibition (NCI-H1650 [1]) | inhibition (NCI-H1703 [14])

COC(=O)[C@H](Cc1ccc(OCc2ccccc2)cc1)NC(=O)CC1CCN(C(=O)CCc2ccc(C#N)cc2)CC1
inactive: inhibition (NCI-H1650 [1]) | inhibition (NCI-H1703 [14])
80.2%: inhibition at 5 µM (NCI-H1650 [16])
active: Activity (A549) | Activity (NCI-H1975) | inhibition (NCI-H146 [2]) | Activity (Homo sapiens [3]) | inhibition [4] | inhibition [5] | Activity (PC-9) | Activity (NCI-H1650 [7]) | inhibition [8] | inhibition (NCI-H1650 [10]) | Activity (NCI-H1703 [12]) | Activity (HCC827) | inhibition [13] | inhibition [15] | Activity (Homo sapiens [17]) | inhibition (NCI-H1703 [18]) | Activity (SK-MEL-5) | inhibition [19] | inhibition [20] | inhibition [23] | inhibition (NCI-H1703 [24]) | inhibition (NCI-H1650 [26]) | inhibition (NCI-H1650 [27]) | inhibition (HUVEC) | Activity (NCI-H226) | inhibition [28]
77.6%: inhibition [9]
Non-Toxic: Activity (NCI-H146 [6]) | Activity (NCI-H1703 [11]) | Activity (NCI-H146 [21]) | Activity (NCI-H1650 [22]) | Activity (NCI-H1703 [25]) | Activity (NCI-H1650 [29])
